Results reported in PMC5944968, “A multi-chamber microfluidic intestinal barrier model using Caco-2 cells for drug transport studies” (PLoS ONE, 2018).
Where two headings read alike, the source gives them in different places. One block for each compound: values may come before it.

How the values were obtained:
[1] = system: Caco-2 monolayers; experiment: TEER of Caco-2 monolayers in microfluidic device after permeation enhancer; type: cell-based, Human
Method: TEER measurements (Ω) of the Caco-2 cells cultured in the microfluidic device were obtained by coupling the connecting wires of the electrodes to a multimeter (Keithley, USA) using alligator clips. Each chamber contained two sets of top electrodes and two sets of bottom electrodes. Each time the TEER values were recorded, only one top electrode and one bottom electrode are connected to the multimeter. Four different configurations of TEER values were recorded, averaged to calculate the final TEER values measured across the microchamber.
The final TEER values (Ω cm^2) were determined by subtracting the baseline measurement in the absence of cells (Rbaseline) from the read out (R1) and multiplying with the area of cell culture (Ao, 1.12 cm^2 for Transwell and 0.1 cm^2 for the microfluidic device) as shown in Eq 1.
(§1) Buffer^+ was prepared by mixing Hank’s Buffered Saline solution (HBSS; Gibco, Denmark), 0.1% (wt/vol) OVA (ovalbumin; from chicken egg white, Sigma, Denmark) and 10 mM HEPES (HEPES; Sigma, Denmark) at pH 7.4.
To validate the accuracy and dynamic span of TEER values acquired from the electrodes on the microfluidic chip, a permeation enhancer, tetradecyl-β-D-maltoside (TDM), was introduced to the Caco-2 monolayers for two hours. The concentration of TDM used in the earlier reported studies is expected to cause a transient disruption of the Caco-2 monolayer integrity, while causing minimal cell death, which is reversible after 24 hours in fresh cell culture medium.

[2] = system: Caco-2 monolayers; experiment: TEER of Caco-2 monolayers in Transwell inserts after permeation enhancer; type: cell-based, Human; settings: recovering to normal levels within 24h in fresh medium
Method: TEER was measured in Transwell inserts with Millicell ERS-2 chopstick Silver/SilverChloride (Ag/AgCl) electrodes (Millipore, USA), and calculated via Eq 1 (see below). […] Sigma, Denmark), insulin (Novo Nordisk, Denmark) and tetradecyl-β-D-Maltoside (TDM; Sigma, Denmark) were all prepared using buffer^+ as the diluent. Buffer^+ was prepared by mixing Hank’s Buffered Saline solution (HBSS; Gibco, Denmark), 0.1% (wt/vol) OVA (ovalbumin; from chicken egg white, Sigma, Denmark) and 10 mM HEPES (HEPES; Sigma, Denmark) at pH 7.4. […] The gentle shaking was to ensure there was little unstirred diffusion layers of fluid in the basolateral region. […] PerkinElmer), after mixing with scintillation fluid (Microscint-40; PerkinElmer), along with a peptide and FD4 content. After the experiments, the cells were washed twice with buffer^+ and replenished with medium for 24 hour recovery. In the microfluidic system, similar to the Transwell studies, before the start of experiment, the DMEM was replaced with buffer^+. Buffer^+ was flowed into the system for 1 hr. Subsequently, the buffer was changed to the test solutions in the top fluidic layer. Flow rate was set at 3 μl/min (in both the upper and lower layers). In the collection reservoirs of the basolateral chambers, 200 μl of buffer was added to each of the collection reservoirs. […]

[3] = system: P-gp; experiment: Rh 123 bidirectional permeability / P-gp efflux across Caco-2 monolayers in microfluidic device; type: in vitro ADME; settings: human, day 10 of cell culture; for Papp at 10 μM: Caco-2, 10 μM Rh 123, microfluidic device, n = 3
Method: Before carrying out the Rh 123 studies, buffer^+ was flowed to both the upper and lower channels for 1 hr. Following that Rh 123 (Sigma-Aldrich, Denmark) prepared in buffer^+ to a concentration of 10 μM was flowed to the basolateral side. 200μl of buffer^+ was added to each waste reservoirs. At each 15min interval, 150 μl was removed from the respective waste reservoirs with replacement of 150μl of buffer^+. Studies were carried out in triplicates.
(§2) The Caco-2 translocation of peptide, [^3H]mannitol or Rh 123 over Caco-2 layers is expressed as the apparent permeability (Papp), given by: Papp=dQ/dt1/AC0 (2) Where dQ/dt is the steady-state flux across the cell layer (pmol/s), A is the surface area (1.12 cm^2 for Transwell, 0.1 cm^2 for microfluidic), and C0 is the initial sample concentration.
For the P-gp studies, the collected samples were analyzed for Rh 123 content using a fluorescence plate reader with excitation/emission of 485/546nm, based on standard curves prepared from test solutions. The efflux ratio of P-gp was determined by: effluxratio=Papp(Basal→Apical)/Papp(Apical→Basal) (4)

[4] = system: Caco-2 monolayers
Method: as §1, §2

SMILES: CCCCCCCCCCCCCCO[C@@H]1O[C@H](CO)[C@@H](O[C@H]2O[C@H](CO)[C@@H](O)[C@H](O)[C@H]2O)[C@H](O)[C@H]1O [TDM, tetradecyl-β-D-maltoside]
TEER in the presence of TDM, % of initial values ([1]; TDM for two hours): 21% | TEER recovery, % of initial values ([1]; after 24 hours of continuous perfusion with cell culture medium): 90% | TEER change following TDM addition ([1]; recovering to normal levels within 24h in fresh medium): reversibly decreased | TEER change following TDM addition [2]: reversibly decreased

Papp at 10 μM ([3]; read-out: Papp(apical → basal)): ~1.03 ×10⁻⁶ cm/s | Papp at 10 μM ([3]; read-out: Papp(basal → apical)): ~11.2 ×10⁻⁶ cm/s | efflux ratio at 10 μM ([3]; Caco-2, microfluidic device, read-out: efflux ratio Papp(Basal→Apical)/Papp(Apical→Basal)): ~10.8
SMILES: COC(=O)c1ccccc1-c1c2ccc(=N)cc-2oc2cc(N)ccc12 [Rh 123, Rhodamine 123]

Papp in microfluidic chip compared to static Transwell cultures [4]: slightly higher (not significant)
SMILES: OC[C@@H](O)[C@@H](O)[C@H](O)[C@H](O)CO [mannitol]
